Results: publication PMC10949855 (Journal of veterinary pharmacology and therapeutics, 2022)

Test system: healthy dogs
Assay: Sedation score
Type: in vivo, dogs (Beagles)
[1] = IV inhibitors, 0.4 mg/kg IV after CYP inhibitors, 0.5 hr
[2] = IV inhibitors, 0.4 mg/kg IV after CYP inhibitors, 1 hr
[3] = IV inhibitors, 0.4 mg/kg IV after CYP inhibitors, 1.5 hr
[4] = IV inhibitors, 0.4 mg/kg IV after CYP inhibitors, 2 hr
[5] = IV inhibitors, 0.4 mg/kg IV after CYP inhibitors, 3 hr
[6] = IV inhibitors, 0.4 mg/kg IV after CYP inhibitors, 4 hr
[7] = IV inhibitors, 0.4 mg/kg IV after CYP inhibitors, 5 hr
[8] = IV inhibitors, 0.4 mg/kg IV after CYP inhibitors, 6 hr
[9] = IV inhibitors, 0.4 mg/kg IV after CYP inhibitors, 7 hr
[10] = IV inhibitors, 0.4 mg/kg IV after CYP inhibitors, 8 hr
[11] = IV inhibitors, 0.4 mg/kg IV after CYP inhibitors, 9 hr
[12] = IV inhibitors, 0.4 mg/kg IV after CYP inhibitors, 10 hr
[13] = IV inhibitors, 0.4 mg/kg IV after CYP inhibitors, 11 hr
[14] = IV inhibitors, 0.4 mg/kg IV after CYP inhibitors, 12 hr
[15] = IV inhibitors, 0.4 mg/kg IV after CYP inhibitors, 24 hr

Oc1ccc2c(c1)[C@@]13CCCC[C@@]1(O)[C@@H](C2)N(CC1CCC1)CC3 [butorphanol]
1: number of dogs with sedation score 2 [5] | number of dogs with sedation score 2 (SC 0.4 mg/kg, 1.5 hr) | number of dogs with sedation score 2 (SC 0.4 mg/kg, 2 hr) | number of dogs with sedation score 0 (SC 0.4 mg/kg, 3 hr)
2: number of dogs with sedation score 2 [4] | number of dogs with sedation score 0 (SC 0.4 mg/kg, 4 hr) | number of dogs with sedation score 0 (SC 0.4 mg/kg, 5 hr) | number of dogs with sedation score 1 (SC 0.4 mg/kg, 6 hr)
5: number of dogs with sedation score 1 [5] | number of dogs with sedation score 1 (SC 0.4 mg/kg, 1.5 hr) | number of dogs with sedation score 1 (SC 0.4 mg/kg, 2 hr) | number of dogs with sedation score 1 (SC 0.4 mg/kg, 3 hr)
0: number of dogs with sedation score 0 [1] | number of dogs with sedation score 2 [1] | number of dogs with sedation score 3 [1] | number of dogs with sedation score 0 [2] | number of dogs with sedation score 2 [2] | number of dogs with sedation score 3 [2] | number of dogs with sedation score 0 [3] | number of dogs with sedation score 2 [3] | number of dogs with sedation score 3 [3] | number of dogs with sedation score 0 [4] | number of dogs with sedation score 3 [4] | number of dogs with sedation score 0 [5] | number of dogs with sedation score 3 [5] | number of dogs with sedation score 2 [6] | number of dogs with sedation score 3 [6] | number of dogs with sedation score 1 [7] | number of dogs with sedation score 2 [7] | number of dogs with sedation score 3 [7] | number of dogs with sedation score 1 [8] | number of dogs with sedation score 2 [8] | number of dogs with sedation score 3 [8] | number of dogs with sedation score 1 [9] | number of dogs with sedation score 2 [9] | number of dogs with sedation score 3 [9] | number of dogs with sedation score 1 [10] | number of dogs with sedation score 2 [10] | number of dogs with sedation score 3 [10] | number of dogs with sedation score 1 [11] | number of dogs with sedation score 2 [11] | number of dogs with sedation score 3 [11] | number of dogs with sedation score 1 [12] | number of dogs with sedation score 2 [12] | number of dogs with sedation score 3 [12] | number of dogs with sedation score 1 [13] | number of dogs with sedation score 2 [13] | number of dogs with sedation score 3 [13] | number of dogs with sedation score 1 [14] | number of dogs with sedation score 2 [14] | number of dogs with sedation score 3 [14] | number of dogs with sedation score 1 [15] | number of dogs with sedation score 2 [15] | number of dogs with sedation score 3 [15] | number of dogs with sedation score 0 (SC 0.4 mg/kg, 0.5 hr) | number of dogs with sedation score 2 (SC 0.4 mg/kg, 0.5 hr) | number of dogs with sedation score 3 (SC 0.4 mg/kg, 0.5 hr) | number of dogs with sedation score 0 (SC 0.4 mg/kg, 1 hr) | number of dogs with sedation score 2 (SC 0.4 mg/kg, 1 hr) | number of dogs with sedation score 3 (SC 0.4 mg/kg, 1 hr) | number of dogs with sedation score 0 (SC 0.4 mg/kg, 1.5 hr) | number of dogs with sedation score 3 (SC 0.4 mg/kg, 1.5 hr) | number of dogs with sedation score 0 (SC 0.4 mg/kg, 2 hr) | number of dogs with sedation score 3 (SC 0.4 mg/kg, 2 hr) | number of dogs with sedation score 2 (SC 0.4 mg/kg, 3 hr) | number of dogs with sedation score 3 (SC 0.4 mg/kg, 3 hr) | number of dogs with sedation score 2 (SC 0.4 mg/kg, 4 hr) | number of dogs with sedation score 3 (SC 0.4 mg/kg, 4 hr) | number of dogs with sedation score 2 (SC 0.4 mg/kg, 5 hr) | number of dogs with sedation score 3 (SC 0.4 mg/kg, 5 hr) | number of dogs with sedation score 2 (SC 0.4 mg/kg, 6 hr) | number of dogs with sedation score 3 (SC 0.4 mg/kg, 6 hr) | number of dogs with sedation score 1 (SC 0.4 mg/kg, 7 hr) | number of dogs with sedation score 2 (SC 0.4 mg/kg, 7 hr) | number of dogs with sedation score 3 (SC 0.4 mg/kg, 7 hr) | number of dogs with sedation score 1 (SC 0.4 mg/kg, 8 hr) | number of dogs with sedation score 2 (SC 0.4 mg/kg, 8 hr) | number of dogs with sedation score 3 (SC 0.4 mg/kg, 8 hr) | number of dogs with sedation score 1 (SC 0.4 mg/kg, 9 hr) | number of dogs with sedation score 2 (SC 0.4 mg/kg, 9 hr) | number of dogs with sedation score 3 (SC 0.4 mg/kg, 9 hr) | number of dogs with sedation score 1 (SC 0.4 mg/kg, 10 hr) | number of dogs with sedation score 2 (SC 0.4 mg/kg, 10 hr) | number of dogs with sedation score 3 (SC 0.4 mg/kg, 10 hr) | number of dogs with sedation score 1 (SC 0.4 mg/kg, 11 hr) | number of dogs with sedation score 2 (SC 0.4 mg/kg, 11 hr) | number of dogs with sedation score 3 (SC 0.4 mg/kg, 11 hr) | number of dogs with sedation score 1 (SC 0.4 mg/kg, 12 hr) | number of dogs with sedation score 2 (SC 0.4 mg/kg, 12 hr) | number of dogs with sedation score 3 (SC 0.4 mg/kg, 12 hr) | number of dogs with sedation score 1 (SC 0.4 mg/kg, 24 hr) | number of dogs with sedation score 2 (SC 0.4 mg/kg, 24 hr) | number of dogs with sedation score 3 (SC 0.4 mg/kg, 24 hr)
3: number of dogs with sedation score 0 [6] | number of dogs with sedation score 1 [6]
4: number of dogs with sedation score 1 [4] | number of dogs with sedation score 1 (SC 0.4 mg/kg, 4 hr) | number of dogs with sedation score 1 (SC 0.4 mg/kg, 5 hr) | number of dogs with sedation score 0 (SC 0.4 mg/kg, 6 hr)
1.5 to 2 h: time with moderate sedation or greater in at least 1 dog (SC 0.4 mg/kg)
6: number of dogs with sedation score 1 [1] | number of dogs with sedation score 1 [2] | number of dogs with sedation score 1 [3] | number of dogs with sedation score 0 [7] | number of dogs with sedation score 0 [8] | number of dogs with sedation score 0 [9] | number of dogs with sedation score 0 [10] | number of dogs with sedation score 0 [11] | number of dogs with sedation score 0 [12] | number of dogs with sedation score 0 [13] | number of dogs with sedation score 0 [14] | number of dogs with sedation score 0 [15] | number of dogs with sedation score 1 (SC 0.4 mg/kg, 0.5 hr) | number of dogs with sedation score 1 (SC 0.4 mg/kg, 1 hr) | number of dogs with sedation score 0 (SC 0.4 mg/kg, 7 hr) | number of dogs with sedation score 0 (SC 0.4 mg/kg, 8 hr) | number of dogs with sedation score 0 (SC 0.4 mg/kg, 9 hr) | number of dogs with sedation score 0 (SC 0.4 mg/kg, 10 hr) | number of dogs with sedation score 0 (SC 0.4 mg/kg, 11 hr) | number of dogs with sedation score 0 (SC 0.4 mg/kg, 12 hr) | number of dogs with sedation score 0 (SC 0.4 mg/kg, 24 hr)
